In US8318716B2, “Carbapenem derivatives” (KBP Biosciences Co., Ltd., priority 2009, dated 2012) one finds MIC90 data, which are given here for seven molecules.

In general, MIC90 refers to the lowest concentration that inhibits either 90% of growth or 90% of the strains tested, depending on the study.

Format in all cases: cell-based
In experiment [1] the test system is Escherichia coli (products from ESBLs). Description: In vitro antibacterial activity, agar dilution method, ESBLs. The following applies: clinically isolated strains. The text has this:
(§1) Bacterial strains for test: All the bacterial strains are clinically isolated strains obtained from public sources. (1) Gram-positive bacteria: methicillin-sensitive Staphylococcus aureus (MSSA), methicillin-resistant Staphylococcus aureus (MRSA), methicillin-resistant Staphylococcus epidermidis (MRSE), methicillin-sensitive Staphylococcus epidermidis (MSSE), penicillin-sensitive Streptococcus pneumoniae (PSSP), and penicillin-resistant Streptococcus pneumoniae (PRSP); (2) Gram-negative bacteria: Escherichia coli (products from ESBLs), Klebsiella pneumonia, and Pseudomonas aeruginosa.
(§2) Drugs to be tested: Compounds 1 to 5, prepared as described above; Control drugs:
(§3) Meropenem (Meropenem for injection), Imipenem (Imipenem for injection), commercially available.
(§4) Experimental Method: the agar dilution method, by reference to Methodology of Pharmacological Experiment (X U Shuyun et al, published by the Peoples Medical Publishing House, 1st Edition, August, 1982; 3rd Edition, 5th printing, January 2002, p 1659-1660).
In general terms: In agar dilution the substance is mixed into plates at graded concentrations.

Another experiment relates to Pseudomonas aeruginosa. As to the kind of experiment: In vitro antibacterial activity, agar dilution method, pseudomonas aeruginosa. The conditions noted are these: clinically isolated strains.
Text: as §1, §2, §3, §4

Experiment [2] concerns methicillin-sensitive Staphylococcus epidermidis (MSSE). As to the kind of experiment: In vitro antibacterial activity, agar dilution method, MSSE.
Text: as §1, §2, §3, §4

The test system of experiment [3] is methicillin-resistant Staphylococcus aureus (MRSA). As to the kind of experiment: In vitro antibacterial activity, agar dilution method, MRSA. The conditions noted are these: clinically isolated strains.
Text: as §1, §2, §3, §4

Experiment [4] has as its system penicillin-resistant Streptococcus pneumoniae (PRSP). Description: In vitro antibacterial activity, agar dilution method, PRSP. The following applies: clinically isolated strains.
Text: as §1, §2, §3, §4

For the next experiment, the system named is Klebsiella pneumonia. As to the kind of experiment: In vitro antibacterial activity, agar dilution method, klebsiella pneumonia. The conditions noted are these: Klebsiella pneumoniae, clinically isolated strains.
Text: as §1, §2, §3, §4

In experiment [5] the test system is methicillin-resistant Staphylococcus epidermidis (MRSE). Description: In vitro antibacterial activity, agar dilution method, MRSE. The following applies: clinically isolated strains.
Text: as §1, §2, §3, §4

In experiment [6] the test system is penicillin-sensitive Streptococcus pneumoniae (PSSP). Description: In vitro antibacterial activity, agar dilution method, PSSP. The conditions noted are these: clinically isolated strains.
Text: as §1, §2, §3, §4

For another experiment, the system named is proteus mirabilis. Description: In vitro antibacterial activity, agar dilution method, proteus mirabilis. The conditions noted are these: clinically isolated strains.
In experiment [7] the test system is methicillin-sensitive Staphylococcus aureus (MSSA). As to the kind of experiment: In vitro antibacterial activity, agar dilution method, MSSA. The following applies: clinically isolated strains.
Text: as §1, §2, §3, §4

The mark [8] stands for this setting: MSSE, clinically isolated strains, agar dilution, read-out: MIC90.

Values after ≈ are worked out from the molar mass of the structure shown. Where two headings read alike, the source gives them in different places.

Regarding `C[C@@H](O)[C@H]1C(=O)N2C(C(=O)O)=C(S[C@@H]3CN[C@H](C(=O)NCc4ccc(OC(F)(F)F)cc4)C3)[C@H](C)[C@H]12` [Compound 4, (4R,5S,6S)-6-((R)-1-hydroxyethyl)-4-methyl-7-oxo-3-((3S,5S)-5-(4-(trifluoromethoxy)benzylcarbamoyl)pyrrolidin-3-ylthio)-1-azabicyclo[3.2.0]hept-2-ene-2-carboxylic acid], the MIC90 in experiment [1] is 0.016 µg/mL (≈ 0.0302 µM); against Pseudomonas aeruginosa, 4 µg/mL (≈ 7.55 µM); in experiment [2] (setting [8]), 0.031 µg/mL (≈ 0.0585 µM); in experiment [3] it was 16 µg/mL (≈ 30.2 µM); in experiment [4], 0.125 µg/mL (≈ 0.236 µM); in the experiment on Klebsiella pneumonia, 0.031 µg/mL (≈ 0.0585 µM). For the same molecule, the MIC90 is 16 µg/mL (≈ 30.2 µM) in experiment [5], 0.016 µg/mL (≈ 0.0302 µM) in experiment [6], 0.125 µg/mL (≈ 0.236 µM) in the experiment with proteus mirabilis and 0.031 µg/mL (≈ 0.0585 µM) in experiment [7].
With `C[C@@H](O)[C@H]1C(=O)N2C(C(=O)O)=C(SCCN=CN)C[C@H]12` [Imipenem, reference compound], the MIC90 in [1] was 0.25 µg/mL (≈ 0.835 µM); against Pseudomonas aeruginosa, 8 µg/mL (≈ 26.7 µM); in [2] (setting [8]), 0.031 µg/mL (≈ 0.104 µM); in [3] it was 32 µg/mL (≈ 107 µM); in [4] it was 0.5 µg/mL (≈ 1.67 µM); against Klebsiella pneumonia it was 0.5 µg/mL (≈ 1.67 µM). For the same molecule, the MIC90 turned out to be 64 µg/mL (≈ 214 µM) in [5], 0.016 µg/mL (≈ 0.0534 µM) in [6], 8 µg/mL (≈ 26.7 µM) in the experiment with proteus mirabilis and 0.063 µg/mL (≈ 0.21 µM) in [7].
Take `C[C@@H](O)[C@H]1C(=O)N2C(C(=O)O)=C(S[C@@H]3CN[C@H](C(=O)N(C)C)C3)[C@H](C)[C@H]12` [Meropenem, reference compound]: the MIC90 in experiment [1] stood at 0.031 µg/mL (≈ 0.0808 µM); against Pseudomonas aeruginosa, 4 µg/mL (≈ 10.4 µM); in [2] it was 0.125 µg/mL (≈ 0.326 µM); in experiment [3] it was 64 µg/mL (≈ 167 µM); in experiment [4], 1 µg/mL (≈ 2.61 µM); against Klebsiella pneumonia, 0.063 µg/mL (≈ 0.164 µM). Moreover, the MIC90 in experiment [5] was found to be 64 µg/mL (≈ 167 µM); in experiment [6], 0.031 µg/mL (≈ 0.0808 µM); against proteus mirabilis, 0.25 µg/mL (≈ 0.652 µM); in experiment [7], 0.25 µg/mL (≈ 0.652 µM).
`C[C@@H](O)[C@H]1C(=O)N2C(C(=O)O)=C(S[C@@H]3CN[C@H](C(=O)NCc4ccc(S(N)(=O)=O)cc4)C3)[C@H](C)[C@H]12` [Compound 2]: the MIC90 in experiment [1] was found to be 0.063 µg/mL (≈ 0.12 µM); against Pseudomonas aeruginosa, 4 µg/mL (≈ 7.62 µM); in [2] (setting [8]) it was 0.063 µg/mL (≈ 0.12 µM); in [3], 16 µg/mL (≈ 30.5 µM); in experiment [4], 0.125 µg/mL (≈ 0.238 µM); in the experiment on Klebsiella pneumonia, 0.063 µg/mL (≈ 0.12 µM). Also, the MIC90 is 32 µg/mL (≈ 61 µM) in [5], 0.016 µg/mL (≈ 0.0305 µM) in experiment [6] and 0.125 µg/mL (≈ 0.238 µM) against proteus mirabilis.
Consider `C[C@@H](O)[C@H]1C(=O)N2C(C(=O)O)=C(S[C@@H]3CN[C@H](C(=O)NCc4cccc(CCC(=O)O)c4)C3)[C@H](C)[C@H]12` [Compound 3], for which the MIC90 in [1] was 0.031 µg/mL (≈ 0.0599 µM); against Pseudomonas aeruginosa it was 2 µg/mL (≈ 3.86 µM); in experiment [2] (setting [8]), 0.031 µg/mL (≈ 0.0599 µM); in experiment [3], 32 µg/mL (≈ 61.8 µM); in experiment [4], 0.25 µg/mL (≈ 0.483 µM); against Klebsiella pneumonia, 0.031 µg/mL (≈ 0.0599 µM). Besides, the MIC90 is 32 µg/mL (≈ 61.8 µM) in experiment [5], 0.031 µg/mL (≈ 0.0599 µM) in experiment [6], 0.25 µg/mL (≈ 0.483 µM) against proteus mirabilis and 0.063 µg/mL (≈ 0.122 µM) in experiment [7].
Take `COc1ccc(CNC(=O)[C@@H]2C[C@H](SC3=C(C(=O)O)N4C(=O)[C@H]([C@@H](C)O)[C@H]4[C@H]3C)CN2)cc1` [Compound 1, (4R,5S,6S)-6-((R)-1-hydroxyethyl)-3-((3S,5S)-5-(4-methoxybenzylcarbamoyl)pyrrolidin-3-ylthio)-4-methyl-7-oxo-1-azabicyclo[3.2.0]hept-2-ene-2-carboxylic acid]: the MIC90 came to 0.031 µg/mL (≈ 0.0652 µM) in experiment [1]; 4 µg/mL (≈ 8.41 µM) with Pseudomonas aeruginosa; 0.031 µg/mL (≈ 0.0652 µM) in experiment [2] (setting [8]); 16 µg/mL (≈ 33.6 µM) in experiment [3]; 0.25 µg/mL (≈ 0.526 µM) in [4]; 0.031 µg/mL (≈ 0.0652 µM) in the experiment on Klebsiella pneumonia. Besides, the MIC90 in experiment [5] came to 32 µg/mL (≈ 67.3 µM); in experiment [6] it was 0.016 µg/mL (≈ 0.0336 µM); with proteus mirabilis it was 0.125 µg/mL (≈ 0.263 µM); in [7], 0.063 µg/mL (≈ 0.132 µM).
For the molecule `C[C@@H](O)[C@H]1C(=O)N2C(C(=O)O)=C(S[C@@H]3CN[C@H](C(=O)NCc4ccc(OC(F)F)cc4)C3)[C@H](C)[C@H]12` [Compound 5], the MIC90 came to 0.016 µg/mL (≈ 0.0313 µM) in experiment [1]; 2 µg/mL (≈ 3.91 µM) against Pseudomonas aeruginosa; 0.063 µg/mL (≈ 0.123 µM) in experiment [2] (setting [8]); 16 µg/mL (≈ 31.3 µM) in experiment [3]; 0.25 µg/mL (≈ 0.489 µM) in experiment [4]; 0.063 µg/mL (≈ 0.123 µM) against Klebsiella pneumonia. The MIC90 in experiment [5] was found to be 16 µg/mL (≈ 31.3 µM); in experiment [6], 0.016 µg/mL (≈ 0.0313 µM); with proteus mirabilis, 0.125 µg/mL (≈ 0.244 µM); in experiment [7] it was 0.063 µg/mL (≈ 0.123 µM).
